Laboratory results taken from the NIST ThermoML archive (doi:10.1021/je800925v).
± gives the expanded uncertainty stated by the source.

Test: xn = mol fraction of the nth substance listed
Details: Liquid

CCCCCCCCCC [decane] + CCO
Details	mass density [kg/m3]	viscosity [mPa·s]
273.15 K, x2 = 0.098	746.5 ± 2.3	1.236 ± 0.032
273.15 K, x2 = 0.198	748.3 ± 2.3	1.257 ± 0.032
273.15 K, x2 = 0.301	750.7 ± 2.3	1.273 ± 0.033
273.15 K, x2 = 0.397	753.8 ± 2.3	1.328 ± 0.034
273.15 K, x2 = 0.501	757.4 ± 2.3	1.429 ± 0.035
273.15 K, x2 = 0.602	762.7 ± 2.3	1.523 ± 0.036
273.15 K, x2 = 0.694	767.4 ± 2.3	1.53 ± 0.036
273.15 K, x2 = 0.799	774.9 ± 2.3	1.565 ± 0.037
273.15 K, x2 = 0.905	787.7 ± 2.2	1.639 ± 0.038
275.65 K, x2 = 0.098	744.6 ± 2.4	1.181 ± 0.031
275.65 K, x2 = 0.198	746.4 ± 2.3	1.2 ± 0.032
275.65 K, x2 = 0.301	748.7 ± 2.3	1.213 ± 0.032
275.65 K, x2 = 0.397	751.8 ± 2.3	1.263 ± 0.033
275.65 K, x2 = 0.501	755.4 ± 2.3	1.351 ± 0.034
275.65 K, x2 = 0.602	760.7 ± 2.3	1.432 ± 0.035
275.65 K, x2 = 0.694	765.4 ± 2.3	1.448 ± 0.035
275.65 K, x2 = 0.799	772.9 ± 2.3	1.486 ± 0.036
275.65 K, x2 = 0.905	785.7 ± 2.2	1.557 ± 0.037
278.15 K, x2 = 0.098	742.7 ± 2.4	1.13 ± 0.031
278.15 K, x2 = 0.198	744.4 ± 2.4	1.148 ± 0.031
278.15 K, x2 = 0.301	746.8 ± 2.3	1.158 ± 0.031
278.15 K, x2 = 0.397	749.9 ± 2.3	1.203 ± 0.032
278.15 K, x2 = 0.501	753.4 ± 2.3	1.281 ± 0.033
278.15 K, x2 = 0.602	758.7 ± 2.3	1.353 ± 0.034
278.15 K, x2 = 0.694	763.3 ± 2.3	1.374 ± 0.034
278.15 K, x2 = 0.799	770.9 ± 2.3	1.412 ± 0.035
278.15 K, x2 = 0.905	783.6 ± 2.2	1.48 ± 0.036
280.65 K, x2 = 0.098	740.8 ± 2.4	1.083 ± 0.03
280.65 K, x2 = 0.198	742.5 ± 2.4	1.099 ± 0.03
280.65 K, x2 = 0.301	744.8 ± 2.4	1.107 ± 0.03
280.65 K, x2 = 0.397	747.9 ± 2.3	1.147 ± 0.031
280.65 K, x2 = 0.501	751.5 ± 2.3	1.217 ± 0.032
280.65 K, x2 = 0.602	756.7 ± 2.3	1.282 ± 0.033
280.65 K, x2 = 0.694	761.3 ± 2.3	1.305 ± 0.033
280.65 K, x2 = 0.799	768.8 ± 2.3	1.344 ± 0.034
280.65 K, x2 = 0.905	781.6 ± 2.2	1.408 ± 0.035
283.15 K, x2 = 0.098	738.9 ± 2.4	1.038 ± 0.029
283.15 K, x2 = 0.198	740.6 ± 2.4	1.053 ± 0.03
283.15 K, x2 = 0.301	742.9 ± 2.4	1.06 ± 0.03
283.15 K, x2 = 0.397	746 ± 2.4	1.096 ± 0.03
283.15 K, x2 = 0.501	749.5 ± 2.3	1.159 ± 0.031
283.15 K, x2 = 0.602	754.7 ± 2.3	1.219 ± 0.032
283.15 K, x2 = 0.694	759.3 ± 2.3	1.242 ± 0.032
283.15 K, x2 = 0.799	766.8 ± 2.3	1.28 ± 0.033
283.15 K, x2 = 0.905	779.5 ± 2.2	1.341 ± 0.034
285.65 K, x2 = 0.098	737 ± 2.4	0.9963 ± 0.029
285.65 K, x2 = 0.198	738.7 ± 2.4	1.01 ± 0.029
285.65 K, x2 = 0.301	741 ± 2.4	1.015 ± 0.029
285.65 K, x2 = 0.397	744 ± 2.4	1.048 ± 0.03
285.65 K, x2 = 0.501	747.5 ± 2.3	1.105 ± 0.03
285.65 K, x2 = 0.602	752.7 ± 2.3	1.158 ± 0.031
285.65 K, x2 = 0.694	757.3 ± 2.3	1.183 ± 0.031
285.65 K, x2 = 0.799	764.7 ± 2.3	1.22 ± 0.032
285.65 K, x2 = 0.905	777.4 ± 2.2	1.278 ± 0.033
288.15 K, x2 = 0.098	735 ± 2.4	0.9574 ± 0.028
288.15 K, x2 = 0.198	736.7 ± 2.4	0.9702 ± 0.029
288.15 K, x2 = 0.301	739 ± 2.4	0.9738 ± 0.029
288.15 K, x2 = 0.397	742 ± 2.4	1.003 ± 0.029
288.15 K, x2 = 0.501	745.5 ± 2.4	1.056 ± 0.03
288.15 K, x2 = 0.602	750.6 ± 2.3	1.104 ± 0.03
288.15 K, x2 = 0.694	755.2 ± 2.3	1.128 ± 0.031
288.15 K, x2 = 0.799	762.7 ± 2.3	1.163 ± 0.031
288.15 K, x2 = 0.905	775.3 ± 2.3	1.218 ± 0.032
290.65 K, x2 = 0.098	733.1 ± 2.4	0.9207 ± 0.028
290.65 K, x2 = 0.198	734.8 ± 2.4	0.9321 ± 0.028
290.65 K, x2 = 0.301	737 ± 2.4	0.9348 ± 0.028
290.65 K, x2 = 0.397	740 ± 2.4	0.9608 ± 0.028
290.65 K, x2 = 0.501	743.5 ± 2.4	1.009 ± 0.029
290.65 K, x2 = 0.602	748.6 ± 2.3	1.053 ± 0.03
290.65 K, x2 = 0.694	753.1 ± 2.3	1.076 ± 0.03
290.65 K, x2 = 0.799	760.6 ± 2.3	1.11 ± 0.03
290.65 K, x2 = 0.905	773.3 ± 2.3	1.162 ± 0.031
293.15 K, x2 = 0	731 ± 2.4	0.9133 ± 0.028
293.15 K, x2 = 0.098	731.2 ± 2.4	0.8862 ± 0.027
293.15 K, x2 = 0.198	732.8 ± 2.4	0.8973 ± 0.028
293.15 K, x2 = 0.301	735.1 ± 2.4	0.8982 ± 0.028
293.15 K, x2 = 0.397	738 ± 2.4	0.9215 ± 0.028
293.15 K, x2 = 0.501	741.5 ± 2.4	0.966 ± 0.028
293.15 K, x2 = 0.602	746.6 ± 2.4	1.006 ± 0.029
293.15 K, x2 = 0.694	751.1 ± 2.3	1.028 ± 0.029
293.15 K, x2 = 0.799	758.5 ± 2.3	1.061 ± 0.03
293.15 K, x2 = 0.905	771.2 ± 2.3	1.109 ± 0.03
295.65 K, x2 = 0.098	729.4 ± 2.4	0.8534 ± 0.027
295.65 K, x2 = 0.198	730.9 ± 2.4	0.8635 ± 0.027
295.65 K, x2 = 0.301	733.1 ± 2.4	0.8638 ± 0.027
295.65 K, x2 = 0.397	736 ± 2.4	0.8848 ± 0.027
295.65 K, x2 = 0.501	739.5 ± 2.4	0.9255 ± 0.028
295.65 K, x2 = 0.602	744.5 ± 2.4	0.962 ± 0.028
295.65 K, x2 = 0.694	749 ± 2.3	0.983 ± 0.029
295.65 K, x2 = 0.799	756.5 ± 2.3	1.014 ± 0.029
295.65 K, x2 = 0.905	769.1 ± 2.3	1.06 ± 0.03
298.15 K, x2 = 0	727.2 ± 2.4	0.8509 ± 0.027
298.15 K, x2 = 0.098	727.3 ± 2.4	0.823 ± 0.026
298.15 K, x2 = 0.198	728.9 ± 2.4	0.8318 ± 0.026
298.15 K, x2 = 0.301	731.1 ± 2.4	0.8314 ± 0.026
298.15 K, x2 = 0.397	734 ± 2.4	0.8501 ± 0.027
298.15 K, x2 = 0.501	737.5 ± 2.4	0.8872 ± 0.027
298.15 K, x2 = 0.602	742.5 ± 2.4	0.9216 ± 0.028
298.15 K, x2 = 0.694	747 ± 2.4	0.9407 ± 0.028
298.15 K, x2 = 0.799	754.4 ± 2.3	0.9698 ± 0.029
298.15 K, x2 = 0.905	766.9 ± 2.3	1.013 ± 0.029
